Entries after “also recorded” stand apart in the source; their conditions may differ. Read-outs that look alike come from different tables or passages of the source. No end group written: not given here.

Here are results for 10 substances from PMC8042122 (Scientific Reports, 2021).

In assay [1] the test system is F. graminearum CBS185.32 strain. The class given is cell-based, Fusarium graminearum.
For assay [2] the test system is unchanged. Type of assay: cell-based, Fusarium graminearum. This is another data set of the same source.
Assay [3] shares this test system. The class given is cell-based, Fusarium graminearum. The source holds these as a separate data set.
Assay [4] relates to F. graminearum strain 8/1. The note with it: cited from earlier work.
The subject of a further assay is bacterial growth. The note with it: cited from earlier work.

“C(CH3)GNFLKRTC(CH3)IC(CH3)VKK [TC3-CH3-123, TC3 with all Cys capped with CH3 groups]”: the DON production entry in assay [1] (50 µM) was “significantly more”. Also, in assay [2] (50 µM), the 15-ADON production entry is on record as “significantly more”.
With “CGNFLKRTCIC(CH3)VKK [TC3-CH3-3, TC3 with Cys11 capped with a methyl group]”, the “Effect on fungal growth (fungal biomass weight)” value (“Effect … (fungal biomass weight)” below) in assay [3] (50 µM) is reported as “significantly less effect”.
Take “CGNFLKRTCICVKK (disulfide (positions not given here)) [TC3Ox]”: in assay [3], the “Effect on fungal growth (dry fungal biomass weight)” value is listed as “reduced effect”. Further, the DON production entry in assay [1] (25 µM) and in assay [1] (50 µM) was “significantly decreased” in each case. Also, the 15-ADON production result in assay [2] (25 µM) and in assay [2] (50 µM) was “significantly decreased” in each case.
With “CGNFLKRTC(CH3)ICVKK [TC3-CH3-2, TC3 with Cys9 capped with a methyl group]”, in assay [3] (50 µM), the “Effect … (fungal biomass weight)” value is “significantly less effect”.
Turning to “CGNFLKRTC(CH3)ICVKK (disulfide) [TC3-CH3-2Ox, TC3-CH3-2 oxidized, cyclized through the non-capped Cys]”, the “Effect … (fungal biomass weight)” value in assay [3] (50 µM) is on record as “significantly less effect”.
On the same count and under the same terms, the result for “CGNFLKRTCIC(CH3)VKK (disulfide) [TC3-CH3-3Ox, TC3-CH3-3 oxidized, cyclized through the non-capped Cys]” reads “significantly less effect”.
For “CGNFLKRTCICVKK [TC3, γ-core of the Ixodes ricinus defensin DefMT3, reduced (linear) form]”, in assay [4], the Effect on germination result was “decrease germination”. In addition, in assay [3], the “Effect on fungal growth (dry fungal biomass weight)” value is recorded as “significant dose-dependent inhibition”. The “Reduction of fungal growth (fold)” value in assay [3] (50 µM) turned out to be 1.8 times. In addition, the “Effect on bacterial growth” value in the assay with bacterial growth is “little or no effect”. In addition, the DON production entry was “non-significant reduction” in assay [1] (12.5 µM), “trace amounts” in assay [1] (25 µM) and “trace amounts; also recorded: abrogated” in assay [1] (50 µM). Also, the results for the 15-ADON production result in assay [2] (12.5 µM), in assay [2] (25 µM) and in assay [2] (50 µM) were “non-significant reduction”, “trace amounts” and “trace amounts; also recorded: abrogated”, respectively.
With “CGNFLKRTCICVKT [TC3-K14T, TC3 with Lys 14 substituted by Thr]”, the “Effect on fungal growth (dry fungal biomass weight)” value in assay [3] is “no effect”.
Regarding “C(CH3)GNFLKRTCICVKK (disulfide) [TC3-CH3-1Ox, TC3-CH3-1 oxidized, cyclized through the non-capped Cys]”, in assay [3] (50 µM), the “Effect … (fungal biomass weight)” value is reported as “significantly less effect”. Besides, the DON production entry in assay [1] (50 µM) is recorded as “reduction”. Besides, in assay [2] (50 µM), the 15-ADON production result was “reduction” and the “Reduction of 15-ADON production” value is reported as “about 42%”.
For the substance “C(CH3)GNFLKRTCICVKK [TC3-CH3-1, TC3 with Cys1 capped with a methyl group]”, the “Effect … (fungal biomass weight)” value in assay [3] (50 µM) is “significantly less effect”. Also, the DON production result in assay [1] (50 µM) is given as “reduction”. Also, in assay [2] (50 µM), the 15-ADON production result is reported as “reduction” and the “Reduction of 15-ADON production” value is reported as “about 33%”.
